Experimental data: a compilation of properties of binary mixtures (doi:10.1016/j.fluid.2015.01.011)

Assay: xn = mol fraction of the nth substance listed
Conditions: 100 kPa

CC[n+]1ccn(C)c1.N#C[S-] + CCOS(=O)(=O)[O-].CC[n+]1ccn(C)c1
Conditions | electrical conductivity [S/m] | viscosity [mPa·s]
298.15 K, x1 = 0.199 | 0.421 | 96.4
298.15 K, x1 = 0.32 | 0.569 | 83.5
298.15 K, x1 = 0.429 | 0.745 | 65.3
298.15 K, x1 = 0.899 | 1.84 | 27.8
298.15 K, x1 = 0.9505 | 2.1 | 25
298.15 K, x1 = 1 | 2.32 | 23.1
303.15 K, x1 = 0.199 | 0.512 | 76.1
303.15 K, x1 = 0.32 | 0.696 | 66.5
303.15 K, x1 = 0.429 | 0.809 | 52.7
303.15 K, x1 = 0.67 | 1.38 | 35.8
303.15 K, x1 = 0.899 | 2.15 | 23.5
303.15 K, x1 = 0.9505 | 2.29 | 21.2
303.15 K, x1 = 1 | 2.67 | 19.68
308.15 K, x1 = 0.32 | 0.842 | 53.9
308.15 K, x1 = 0.429 | 1.09 | 43.1
308.15 K, x1 = 0.67 | 1.62 | 30
308.15 K, x1 = 0.899 | 2.5 | 20.07
308.15 K, x1 = 0.9505 | 2.79 | 18.2
308.15 K, x1 = 1 | 3.06 | 16.97
313.15 K, x1 = 0.199 | 0.733 | 61.2
313.15 K, x1 = 0.32 | 1 | 53.9
313.15 K, x1 = 0.67 | 1.88 | 30
313.15 K, x1 = 0.899 | 2.85 | 20.07
313.15 K, x1 = 0.9505 | 3.18 | 18.2
313.15 K, x1 = 1 | 3.47 | 16.97
318.15 K, x1 = 0.199 | 0.861 | 50.1
318.15 K, x1 = 0.32 | 1.19 | 44.4
318.15 K, x1 = 0.429 | 1.29 | –
318.15 K, x1 = 0.67 | 2.18 | –
318.15 K, x1 = 0.899 | 3.25 | –
318.15 K, x1 = 1 | 3.92 | 14.54
323.15 K, x1 = 0.199 | 1.02 | 34.7
323.15 K, x1 = 0.32 | 1.38 | 31.1
323.15 K, x1 = 0.429 | 1.52 | 25.7
323.15 K, x1 = 0.67 | 2.49 | 18.78
323.15 K, x1 = 0.9505 | 4.04 | 12.2
323.15 K, x1 = 1 | 4.38 | 11.49
328.15 K, x1 = 0.199 | – | 29.5
328.15 K, x1 = 0.32 | – | 26.6
328.15 K, x1 = 0.67 | – | 16.38
328.15 K, x1 = 0.899 | – | 11.78
328.15 K, x1 = 0.9505 | – | 10.86
328.15 K, x1 = 1 | – | 10.25
333.15 K, x1 = 0.199 | – | 25.3
333.15 K, x1 = 0.429 | – | 19.14
333.15 K, x1 = 0.67 | – | 14.35
333.15 K, x1 = 0.899 | – | 10.37
333.15 K, x1 = 0.9505 | – | 9.56
333.15 K, x1 = 1 | – | 9.02
338.15 K, x1 = 0.199 | – | 21.85
338.15 K, x1 = 0.32 | – | 19.89
338.15 K, x1 = 0.429 | – | 16.74
338.15 K, x1 = 0.67 | – | 12.76
338.15 K, x1 = 0.9505 | – | 8.75
338.15 K, x1 = 1 | – | 8.3
343.15 K, x1 = 0.199 | – | 19.06
343.15 K, x1 = 0.67 | – | 11.37
343.15 K, x1 = 0.899 | – | 8.53
343.15 K, x1 = 0.9505 | – | 7.92
343.15 K, x1 = 1 | – | 7.53
348.15 K, x1 = 0.199 | – | 16.75
348.15 K, x1 = 0.32 | – | 15.38
348.15 K, x1 = 0.429 | – | 13.08
348.15 K, x1 = 0.67 | – | 10.21
348.15 K, x1 = 0.899 | – | 7.74
348.15 K, x1 = 1 | – | 6.87
353.15 K, x1 = 0.199 | – | 14.87
353.15 K, x1 = 0.32 | – | 13.71
353.15 K, x1 = 0.429 | – | 11.68
353.15 K, x1 = 0.67 | – | 9.16
353.15 K, x1 = 0.899 | – | 6.96
353.15 K, x1 = 0.9505 | – | 6.48
353.15 K, x1 = 1 | – | 6.17

CC[n+]1ccn(C)c1.N#C[S-] + CC[n+]1ccn(C)c1.N#C[N-]C#N
x1 = 1
Conditions | electrical conductivity [S/m] | viscosity [mPa·s]
298.15 K | 2.32 | 23.1
303.15 K | 2.67 | 19.68
308.15 K | 3.06 | 16.97
313.15 K | 3.47 | 14.54
323.15 K | 4.38 | 11.49
333.15 K | – | 9.02
348.15 K | – | 6.87
353.15 K | – | 6.17

CCOS(=O)(=O)[O-].CC[n+]1ccn(C)c1 + CC[n+]1ccn(C)c1.N#C[S-]
x2 = 0
Conditions | electrical conductivity [S/m] | viscosity [mPa·s]
298.15 K | 0.308 | 96.9
303.15 K | 0.382 | 76.5
308.15 K | 0.469 | 61.6
313.15 K | 0.57 | –
318.15 K | 0.678 | –
323.15 K | 0.871 | 35
328.15 K | – | 29.7
333.15 K | – | 25.6
338.15 K | – | 22.04
343.15 K | – | 19.23
348.15 K | – | 16.89

CC[n+]1ccn(C)c1.N#C[N-]C#N + CC[n+]1ccn(C)c1.N#C[S-]
Conditions | electrical conductivity, x2 = 0 [S/m] | electrical conductivity, x2 = 0.2585 [S/m] | electrical conductivity, x2 = 0.5112 [S/m] | electrical conductivity, x2 = 0.7603 [S/m] | viscosity, x2 = 0 [mPa·s] | viscosity, x2 = 0.2585 [mPa·s] | viscosity, x2 = 0.5112 [mPa·s] | viscosity, x2 = 0.7603 [mPa·s]
298.15 K | 2.84 | – | 2.51 | 2.41 | 14.78 | – | 18.27 | 20.62
303.15 K | 3.22 | 3.05 | 2.89 | 2.76 | 12.87 | 14.18 | 15.74 | 17.66
308.15 K | 3.63 | – | 3.27 | 3.14 | 11.3 | – | 13.7 | 15.3
313.15 K | 4.06 | 3.87 | 3.67 | 3.56 | 9.76 | 10.72 | 11.78 | 13.12
318.15 K | – | 4.33 | 4.14 | – | – | 9.75 | 10.66 | –
323.15 K | 5.02 | 4.81 | – | 4.48 | 8.01 | 8.73 | – | 10.47
328.15 K | – | – | – | – | 7.24 | – | 8.54 | 9.37
333.15 K | – | – | – | – | – | 6.92 | 7.51 | 8.25
338.15 K | – | – | – | – | 6 | – | 7.01 | 7.64
343.15 K | – | – | – | – | 5.51 | 5.94 | 6.4 | 6.95
348.15 K | – | – | – | – | 5.06 | 5.47 | – | 6.36
353.15 K | – | – | – | – | 4.52 | 4.89 | 5.25 | –

[N-]=C=S.[NH4+] + CC[n+]1ccn(C)c1.N#C[S-]
Conditions | electrical conductivity, x1 = 0.039 [S/m] | electrical conductivity, x1 = 0.099 [S/m] | electrical conductivity, x1 = 0.1395 [S/m] | viscosity, x1 = 0.039 [mPa·s] | viscosity, x1 = 0.099 [mPa·s] | viscosity, x1 = 0.1395 [mPa·s]
298.15 K | 2.07 | 2.05 | 1.86 | 25.9 | 29.9 | 31.6
303.15 K | 2.38 | 2.37 | 2.17 | 22 | 25.2 | 26.5
308.15 K | 2.72 | 2.72 | 2.5 | 18.84 | 21.4 | 22.5
313.15 K | – | 3.11 | 2.88 | – | 18.21 | 19.1
318.15 K | – | 3.52 | – | – | 16 | –
323.15 K | 3.97 | 3.98 | – | 12.59 | 14.03 | –
328.15 K | – | – | – | – | 12.4 | 12.88
333.15 K | – | – | – | 9.85 | – | 11.33
338.15 K | – | – | – | 9.01 | 9.9 | 10.24
343.15 K | – | – | – | 8.16 | 8.91 | –
348.15 K | – | – | – | 7.42 | – | 8.32
353.15 K | – | – | – | 6.68 | – | –

CC[n+]1ccn(C)c1.N#C[S-] + [N-]=C=S.[NH4+]
x2 = 0
Conditions | electrical conductivity [S/m] | viscosity [mPa·s]
298.15 K | 2.32 | 23.1
303.15 K | 2.67 | 19.68
308.15 K | 3.06 | 16.97
313.15 K | 3.47 | 14.54
318.15 K | 3.92 | 12.98
328.15 K | – | 10.25
333.15 K | – | 9.02
338.15 K | – | 8.3
343.15 K | – | 7.53
